Source: BindingDB's records for doi:10.1016/j.bmcl.2006.01.126 (Amgen, 2006)

Experiment: Inhibition of TARC-mediated CEM cell migration

SMILES	IC50
c1ccc2c(Nc3nc(CN(CC4CCCCC4)CC4CCCCC4)cs3)cccc2c1 [4-((bis(cyclohexylmethyl)amino)methyl)-N-(naphthalen-1-yl)thiazol-2-amine]	0.53 µM
Cc1csc(Nc2cccc3ccccc23)n1 [4-methyl-N-(naphthalen-1-yl)thiazol-2-amine]	6.4 µM
